Assay [1] in a line: ANTS/DPX liposome leakage assay, POPC vesicles. Format: biochemical. The conditions noted are these: 0.5 mM vesicles; for Peptide Concentration-induced 50% ANTS/DPX leakage at pH 4.8, POPC Vesicle: pH 4.8, lipid per peptide; for Peptide Concentration-induced 50% ANTS/DPX leakage at pH 7.4, POPC Vesicle: pH 7.4, lipid per peptide. As for the experimental part: (§1) In brief, 0.5 mM POPC vesicles (grey) or POPC:POPG vesicles (ratio 3:1, black) were incubated with peptide concentrations of 0, 0.02, 0.04, 0.08, 0.16, 0.32, 0.64, 1.25, 2.5, 5, 10, and 20 μM in each A) hydrochloric acid-adjusted phosphate buffered saline (1×, pH 4.8) and B) phosphate buffered saline (1×, pH 7.4).
(§2) The lipids 1-palmitoyl-2-oleoyl-sn-glycero-3-phosphocholine (POPC), 1-palmitoyl-2-oleoyl-snglycero-3-phospho-(1′-rac-glycerol) (POPG) were purchased from Avanti Polar Lipids and dissolved in chloroform. Large unilamellar vesicles (LUVs) were produced by extrusion through 100 nm pore filter using an extruder and filters purchased from Avanti Polar Lipids.
(§3) 5 mM ANTS (8-aminonaphthalene-1,3,6-trisulfonic acid, disodium salt) and 12.5 mM DPX (p-xylene-bis-pyridinium bromide) were entrapped in 0.1 μm diameter extruded vesicles with lipids. Gel filtration chromatography using a Sephadex G-100 (GE Healthcare Life Sciences Inc) was used to remove external free ANTS/DPX from LUVs with entrapped contents. LUVs were diluted to 0.5 mM and used to measure the leakage activity by addition of aliquots of peptides. Leakage was measured after 3 h incubation. 10% Triton was used as the positive control to measure the maximum leakage of the vesicle. Fluorescence emission spectra were recorded using excitation and emission wavelength of 350 nm and 510 nm for ANTS/DPX using a BioTek Synergy H1 Hybrid Multi-Mode Reader.
(§4) Table 4 illustrates peptide concentration-induced 50% ANTS/DPX liposome leakage. 0.5 mM POPC and 3POPC/1POPG vesicles were fixed and incubated with titrated peptide concentration ([…]) each in phosphate buffered saline (1×, pH 7.4) and hydrochloric acid-adjusted phosphate buffered saline (1×, pH 4.8). The values are shown as lipid per peptide. †N-terminus is free, C-terminus: —W—NH2.

In assay [2] the test system is U2OS (human bone osteosarcoma). The conditions noted are these: 72 h. The text has this: (§5) HMLER (human mammary endothelial cancer cells), HMLER-shEcad (human mammary endothelial cancer stem cells), and MCF-10A (healthy human mammary endothelial) cells were maintained in Mammary Epithelial Cell Growth Medium (MEGM) with supplements and growth factors: bovine pituitary extract (BPE), hydrocortisone, human epidermal growth factor (hEGF), insulin, and gentamicin/amphotericin-B. HEK293T (human embryonic kidney cell), and U2OS (Homo sapiens bone osteosarcoma) cells were maintained in Dulbecco's Modified Eagle's Medium (DMEM) with a final concentration of 10% fetal bovine serum. The cells were grown in T75 flask at 310 K in a humidified atmosphere containing 5% CO2.
(§6) The colourimetric MTT (3-(4,5-dimethylthiazol-2-yl)-2,5-diphenyltetrazolium bromide) assay was used to determine the toxicity of the anticancer peptides and conventional anticancer drugs. 5×10^3 cells were seeded in each well of a 96-well microplate. The cells were incubated overnight. Elevated concentrations of the compounds (0, 0.1, 0.2, 0.4, 0.8, 1.6, 3.1, 6.3, 12.5, 25, 50 and 100 μM) were added and incubated for 72 hr with a total volume 200 μL. The stock solutions of the compounds were prepared as 5 mM solutions in DMSO and diluted using media or in pure water. The final concentration of DMSO in each well was either 0.5% or 0% and this amount was present in the untreated control. After 72 hr, 20 μL of a 4 mg/mL solution of MTT in PBS was added to each well, and the plate was incubated for an additional 4 hr. The MEGM/MTT mixture was aspirated and 100 μL of DMSO was added to dissolve the resulting purple formazan crystals. The absorbance of the solutions in each well was read at 550 nm wavelength. Absorbance values were normalized to either DMSO-containing or non DMSO-containing control wells and plotted as concentration of test compound versus % cell viability. IC50 values were interpolated from the resulting dose dependent curves.
(§7) The peptides were screened against several different human cell lines and their cytotoxicity were determined. Cell lines utilised include MCF-10A (human breast epithelial cell), HMLER (human breast cancer bulk cell), HMLER-shEcad (human breast cancer stem cell), HEK293T (human embryonic kidney cell), and U2OS (human bone osteosarcoma).

Assay [3] can be described thus: Tryptophan fluorescent binding assay, 3POPC/1POPG vesicles. The conditions noted are these: 50 μM peptide, PBS pH 7.4, lipid per peptide. As for the experimental part:
(§8) In brief, 50 μM peptides were fixed and incubated with titrated POPC vesicles (black) or 3POPC/1POPG vesicles (grey) at concentrations of 0, 12.5, 25, 50, 100, 250, 500, 1000, 2500, and 5000 μM in phosphate buffered saline (1×, pH 7.4). The lipid concentration that causes 50% peptide binding was determined using a tryptophan fluorescent binding assay and the values are shown as lipid per peptide.
as §2
(§9) Peptides (50 μM) and POPC/POPG LUVs (600 μM) were prepared in 10 mM phosphate buffer (pH 7.0). The solutions were incubated and measured after 60 minutes. Excitation was fixed at 280 nm (slit 9 nm) and emission was collected from 300 to 450 nm (slit 9 nm). The spectra were recorded using a Synergy H1 Hybrid Multi-Mode Reader (FIG. 3A) and Cytation™ 5 Cell Imaging Multi-Mode Reader (FIG. 2) from BioTek and were averaged over 3 scans.
(§10) Table 3 illustrates the lipid concentration-induced 50% peptide binding onto a liposome. 50 μM peptide was fixed and incubated with titrated lipid (POPC vesicles or 3POPC/1POPG vesicles) at concentrations of 0, 12.5, 25, 50, 100, 250, 500, 1000, 2500, and 5000 μM in phosphate buffered saline (1×, pH 7.4). The lipid concentration that causes 50% peptide binding was determined using tryptophan fluorescent binding assay and the values are shown as lipid per peptide. †N-terminus is free, C-terminus: —W—NH2.

Assay [4] has as its system HMLER-shEcad (human breast cancer stem cell). Kind of assay: cells. The conditions noted are these: 72 h.
Excerpt: as §5, §6, §7

Assay [5] has as its system HMLER (human breast cancer bulk cell). Nature of the assay: cells. The conditions noted are these: 72 h.
Excerpt: as §5, §6, §7

In assay [6] the test system is HEK293T (human embryonic kidney cell). Kind of assay: cells. The conditions noted are these: 72 h.
Excerpt: as §5, §6, §7

Assay [7] can be described thus: Tryptophan fluorescent binding assay, POPC vesicles. The conditions noted are these: 50 μM peptide, PBS pH 7.4, lipid per peptide. As for the experimental part:
as §8, §2, §9, §10

Assay [8] is described as follows: ANTS/DPX liposome leakage assay, 3POPC/1POPG vesicles. Format: biochemical. The conditions noted are these: 0.5 mM vesicles; for Peptide Concentration-induced 50% ANTS/DPX leakage at pH 4.8, 3POPC/1POPG Vesicle: pH 4.8, lipid per peptide; for Peptide Concentration-induced 50% ANTS/DPX leakage at pH 7.4, 3POPC/1POPG Vesicle: pH 7.4, lipid per peptide. As for the experimental part: as §1, §2, §3, §4

`CC(C)C[C@H](NC(=O)CN)C(=O)N[C@@H](CC(C)C)C(=O)N[C@@H](CC(=O)O)C(=O)N[C@@H](CC(C)C)C(=O)N[C@@H](CC(C)C)C(=O)N[C@@H](Cc1c[nH]cn1)C(=O)N[C@@H](CC(C)C)C(=O)N[C@@H](CC(C)C)C(=O)N[C@@H](CC(C)C)C(=O)N[C@@H](CCC(=O)O)C(=O)N[C@@H](C)C(=O)N[C@@H](C)C(=O)NCC(=O)N[C@@H](Cc1c[nH]c2ccccc12)C(N)=O` [DHE]: the “Peptide Concentration-induced 50% ANTS/DPX leakage at pH 4.8, POPC Vesicle” value in assay [1] is on record as 58 L/P. For the same compound, the “Peptide Concentration-induced 50% ANTS/DPX leakage at pH 7.4, POPC Vesicle” value in assay [1] was 566 L/P. In addition, the IC50 was found to be 17.2 ± 1.06 µM in assay [2], 2.8 ± 0.14 µM in assay [4], 3.75 ± 0.92 µM in assay [5] and 11.1 ± 1.91 µM in assay [6]. Besides, in assay [3], the “Lipid Concentration-induced 50% Peptide Binding, 3POPC/1POPG Vesicle” value was determined as 0.72 L/P. In addition, in assay [7], the “Lipid Concentration-induced 50% Peptide Binding, POPC Vesicle” value was 1.00 L/P. For the same compound, the “Peptide Concentration-induced 50% ANTS/DPX leakage at pH 4.8, 3POPC/1POPG Vesicle” value in assay [8] is listed as 469 L/P. Further, in assay [8], the “Peptide Concentration-induced 50% ANTS/DPX leakage at pH 7.4, 3POPC/1POPG Vesicle” value amounted to 581 L/P.

Regarding `CC(C)C[C@H](NC(=O)CN)C(=O)N[C@@H](CC(C)C)C(=O)N[C@@H](CC(=O)O)C(=O)N[C@@H](CC(C)C)C(=O)N[C@@H](CC(C)C)C(=O)N[C@@H](Cc1c[nH]cn1)C(=O)N[C@@H](CC(C)C)C(=O)N[C@@H](CC(C)C)C(=O)N[C@@H](CC(C)C)C(=O)N[C@@H](Cc1c[nH]cn1)C(=O)N[C@@H](C)C(=O)N[C@@H](C)C(=O)NCC(=O)N[C@@H](Cc1c[nH]c2ccccc12)C(N)=O` [DHH], the “Peptide Concentration-induced 50% ANTS/DPX leakage at pH 4.8, POPC Vesicle” value in assay [1] was 106 L/P. Also, the “Peptide Concentration-induced 50% ANTS/DPX leakage at pH 7.4, POPC Vesicle” value in assay [1] came to 684 L/P. Besides, the half-inhibitory concentration (IC50) in assay [2] amounted to 55.9 ± 18.9 µM; in assay [4] it was 11.9 ± 0.14 µM; in assay [5] it was 21.4 ± 2.47 µM; in assay [6], 6.4 ± 0.42 µM. The “Lipid Concentration-induced 50% Peptide Binding, 3POPC/1POPG Vesicle” value in assay [3] was 0.28 L/P. Moreover, the “Lipid Concentration-induced 50% Peptide Binding, POPC Vesicle” value in assay [7] was 0.67 L/P. Further, in assay [8], the “Peptide Concentration-induced 50% ANTS/DPX leakage at pH 4.8, 3POPC/1POPG Vesicle” value is 98 L/P. Also, in assay [8], the “Peptide Concentration-induced 50% ANTS/DPX leakage at pH 7.4, 3POPC/1POPG Vesicle” value was found to be 692 L/P.

Consider `CC(C)C[C@H](NC(=O)CN)C(=O)N[C@@H](CC(C)C)C(=O)N[C@@H](CCCCN)C(=O)N[C@@H](CC(C)C)C(=O)N[C@@H](CC(C)C)C(=O)N[C@@H](CCC(=O)O)C(=O)N[C@@H](CC(C)C)C(=O)N[C@@H](CC(C)C)C(=O)N[C@@H](CC(C)C)C(=O)N[C@@H](Cc1c[nH]cn1)C(=O)N[C@@H](C)C(=O)N[C@@H](C)C(=O)NCC(=O)N[C@@H](Cc1c[nH]c2ccccc12)C(N)=O` [KEH], for which, in assay [1], the “Peptide Concentration-induced 50% ANTS/DPX leakage at pH 4.8, POPC Vesicle” value was 188 L/P. Also, the “Peptide Concentration-induced 50% ANTS/DPX leakage at pH 7.4, POPC Vesicle” value in assay [1] was 995 L/P. Also, the IC50 in assay [2] worked out at 49.2 ± 5.3 µM; in assay [4], 2.35 ± 0.07 µM; in assay [5] it was 3.3 ± 0.42 µM; in assay [6], 5.65 ± 0.07 µM. In assay [3], the “Lipid Concentration-induced 50% Peptide Binding, 3POPC/1POPG Vesicle” value worked out at 0.50 L/P. In assay [7], the “Lipid Concentration-induced 50% Peptide Binding, POPC Vesicle” value was 1.00 L/P. Also, the “Peptide Concentration-induced 50% ANTS/DPX leakage at pH 4.8, 3POPC/1POPG Vesicle” value in assay [8] worked out at 68 L/P. Besides, the “Peptide Concentration-induced 50% ANTS/DPX leakage at pH 7.4, 3POPC/1POPG Vesicle” value in assay [8] is on record as 286 L/P.

As for `CC(C)C[C@H](NC(=O)CN)C(=O)N[C@@H](CC(C)C)C(=O)N[C@@H](CCC(=O)O)C(=O)N[C@@H](CC(C)C)C(=O)N[C@@H](CC(C)C)C(=O)N[C@@H](CCCCN)C(=O)N[C@@H](CC(C)C)C(=O)N[C@@H](CC(C)C)C(=O)N[C@@H](CC(C)C)C(=O)N[C@@H](Cc1c[nH]cn1)C(=O)N[C@@H](C)C(=O)N[C@@H](C)C(=O)NCC(=O)N[C@@H](Cc1c[nH]c2ccccc12)C(N)=O` [EKH], the “Peptide Concentration-induced 50% ANTS/DPX leakage at pH 4.8, POPC Vesicle” value in assay [1] amounted to 55 L/P. Moreover, in assay [1], the “Peptide Concentration-induced 50% ANTS/DPX leakage at pH 7.4, POPC Vesicle” value worked out at 608 L/P. Also, the half-inhibitory concentration (IC50) in assay [2] stood at 23.8 ± 0.81 µM; in assay [4] it was 2.18 ± 0.31 µM; in assay [5] it was 2.75 ± 0.07 µM; in assay [6], 6.65 ± 1.34 µM. In addition, the “Lipid Concentration-induced 50% Peptide Binding, 3POPC/1POPG Vesicle” value in assay [3] stood at 0.19 L/P. In assay [7], the “Lipid Concentration-induced 50% Peptide Binding, POPC Vesicle” value is on record as 0.75 L/P. Also, in assay [8], the “Peptide Concentration-induced 50% ANTS/DPX leakage at pH 4.8, 3POPC/1POPG Vesicle” value is 88 L/P. Further, the “Peptide Concentration-induced 50% ANTS/DPX leakage at pH 7.4, 3POPC/1POPG Vesicle” value in assay [8] is 365 L/P.

Values taken from patent publication US20250326794A1, “ANTI-CANCER LEUCINE-RICH PEPTIDES AND USES THEREOF” (KING'S COLLEGE LONDON, priority 2019, published 2025).
